Laboratory results reported in PMC8765781, “A platform of assays for the discovery of anti-Zika small-molecules with activity in a 3D-bioprinted outer-blood-retina model” (PLoS ONE, 2022).
Read-outs that look alike come from different tables or passages of the source.

Columns and labels:
[1] = tested on: ZIKV-RLuc (Cambodian strain FSS13025); test: microbe, parasite or virus in culture; format: cell-based, Zika virus
[2] = Zika virus, Vero, read-out: Log AC50 (M) (converted)

Structure (SMILES)	AC50 (Vero cells)	Log AC50 (M) (Vero cells)	CC-v2 (curve class classification v2 of the dose response curve) [1]	Efficacy (difference between neutral response and maximum compound response) [1]	Max Resp (difference between neutral response and compound response for highest compound concentration) [1]	AC50 ([1]; Zika virus, Vero)	AC50 [1, 2]	AC50 [1]	Log AC50 (M) [1]
O=C(N[C@@H](c1ccccc1)[C@@H]1CCCCN1)c1cccc(C(F)(F)F)c1Cl [NCGC00247954-02]	42.7 µM	-4.3699 M	-2.1	-87.335	-99.352	4.27e-05 M	4.27e-05 M		
O=C1Nc2ccc(Cl)cc2[C@@](C#CC2CC2)(C(F)(F)F)O1 [NCGC00159337-04]	16.5 µM	-4.7827 M	-2.1	-93.261	-95.737	1.65e-05 M	1.65e-05 M		
CN(C)C1CCN(CCCOc2ccc(-c3ccc(C#N)cc3)cc2)C1 (stereo not drawn) [NCGC00165730-02]	36.9 µM	-4.4327 M	-3	-68.814	-57.023	3.69e-05 M	3.69e-05 M		
Cc1nc2cnc3ccc(C#Cc4cccnc4)cc3c2n1-c1ccc(C(C)(C)C#N)cc1 [NCGC00263088-01]	5.85 µM	-5.2327 M	-1.1	-103.241	-92.032	5.85e-06 M	5.85e-06 M		
CC(=O)O[C@H]1C(=O)[C@@]2(C)C([C@H](OC(=O)c3ccccc3)[C@]3(O)C[C@H](OC(=O)[C@H](O)[C@@H](NC(=O)c4ccccc4)c4ccccc4)C(C)=C1C3(C)C)[C@]1(OC(C)=O)CO[C@@H]1C[C@@H]2O (stereo partly drawn) [NCGC00024995-10]	20.8 µM	-4.6827 M	-2.2	-75.217	-63.948	2.08e-05 M	2.08e-05 M		
O=c1cc(-c2ccc(O)c(O)c2)oc2c(C3O[C@H](CO)[C@H](O)[C@H](O)[C@H]3O)c(O)cc(O)c12 (stereo partly drawn) [NCGC00168934-02]	18.5 µM	-4.7327 M	-2.1	-106.691	-100.564	1.85e-05 M	1.85e-05 M		
CCCCCCCCOc1ccccc1C(=O)Nc1ccc(C(=O)OCC[N+](C)(CC)CC)cc1.[Br-] [NCGC00163507-03]	20.8 µM	-4.6827 M	-2.4	-66.096	-65.496	2.08e-05 M	2.08e-05 M		
CC(=O)O[C@H]1C(=O)[C@@]2(C)[C@H]([C@H](OC(=O)c3ccccc3)[C@]3(O)C[C@H](OC(=O)[C@H](O)[C@@H](NC(=O)c4ccccc4)c4ccccc4)C(C)=C1C3(C)C)[C@]1(OC(C)=O)CO[C@@H]1C[C@@H]2O [NCGC00164367-10]	0.139 µM	-6.8582 M	-1.2	-44.84	-48.24	1.39e-07 M	1.39e-07 M		
CC(=O)c1c(C)c2cnc(Nc3ccc(N4CCNCC4)cn3)nc2n(C2CCCC2)c1=O [NCGC00263129-04]	16.5 µM	-4.7827 M	-2.2	-88.43	-70.898	1.65e-05 M	1.65e-05 M		
C=C(C)[C@H]1CCC(C)=C[C@@H]1c1c(O)cc(CCCCC)cc1O [NCGC00385066-01]	36.9 µM	-4.4327 M	-3	-124.845	-99.067	3.69e-05 M	3.69e-05 M		
C/C=C(/C)C(=O)O[C@H]1C(C)=C2[C@H]([C@@H]1OC(=O)CCCCCCC)[C@@](C)(OC(C)=O)C[C@H](OC(=O)CCC)[C@@]1(O)[C@H]2OC(=O)[C@@]1(C)O [NCGC00261947-01]	3.29 µM	-5.4827 M	-1.2	-69.727	-98.941	3.29e-06 M	3.29e-06 M		
Oc1c(Cl)cc(Cl)c(Cl)c1Cc1c(O)c(Cl)cc(Cl)c1Cl [NCGC00091195-08]	2.33 µM	-5.6327 M	-1.1	-99.169	-99.917	2.33e-06 M	2.33e-06 M		
CC1(C)CCC(C)(C)c2cc(NC(=O)c3ccc(C(=O)O)cc3)ccc21 [NCGC00181111-02]	36.9 µM	-4.4327 M	-2.1	-104.922	-87.275			3.69e-05 M	-4.4327
O=c1[nH]c2ccccc2n1C1CCN(Cc2ccc(-c3nc4cc5nc[nH]c5cc4nc3-c3ccccc3)cc2)CC1 [NCGC00165727-01]	16.5 µM	-4.7827 M	-2.1	-80.197	-82.143	1.65e-05 M	1.65e-05 M		
CCCCCCCCCCCC(CC1OC(=O)C1CCCCCC)OC(=O)C(CC(C)C)NC=O (stereo not drawn) [NCGC00095128-04]	29.3 µM	-4.5327 M	-2.1	-95.825	-91.668	2.93e-05 M	2.93e-05 M		
C[C@@H]1C[C@H]2[C@@H]3CCC4=CC(=O)C=C[C@]4(C)[C@@]3(Cl)[C@@H](O)C[C@]2(C)[C@@]1(OC(=O)c1ccco1)C(=O)CCl [NCGC00179578-03]	23.3 µM	-4.6327 M	-2.1	-100.838	-97.726	2.33e-05 M	2.33e-05 M		
N=c1c2c(-c3ccccc3)c(-c3ccccc3)n(Cc3ccccc3)c2ncn1C1CCC(O)CC1 (stereo not drawn) [NCGC00247785-05]	4.96 µM	-5.3045 M	-1.1	-97.244	-99.645	4.96e-06 M	4.96e-06 M		
O=C1NC(=O)/C(=C/c2ccc3nccc(-c4ccncc4)c3c2)S1 [NCGC00346509-02]	1.47 µM	-5.8327 M	-1.1	-91.751	-97.47	1.47e-06 M	1.47e-06 M		
C1=C/COCc2cc(ccc2OCCN2CCCC2)Nc2nccc(n2)-c2cccc(c2)OCC/1 [NCGC00249346-02]	1.17 µM	-5.9327 M	-1.1	-91.692	-99.088	1.17e-06 M	1.17e-06 M		
COc1c(C)cnc(Cn2cnc3c(Cl)nc(N)nc32)c1C [NCGC00247877-01]	0.185 µM	-6.7327 M	-1.2	-34.341	-31.198	1.85e-07 M	1.85e-07 M		
Nc1nc(Nc2ccc([S+](N)(=O)[O-])cc2)nn1C(=O)c1c(F)cccc1F [NCGC00263151-01]	16.5 µM	-4.7827 M	-2.1	-94.324	-90.046	1.65e-05 M	1.65e-05 M		
ClC1=C(Cl)[C@]2(Cl)[C@@H]3[C@@H]4C[C@@H]([C@H]5O[C@@H]45)[C@@H]3[C@@]1(Cl)C2(Cl)Cl [NCGC00244579-01]	75.9 µM	-4.1199 M	-3	-117.983	-96.11	7.59e-05 M	7.59e-05 M		
CC(=O)N(C)C1(c2ccccc2)CCN(CCC[C@]2(c3ccc(Cl)c(Cl)c3)CCCN(C(=O)c3ccccc3)C2)CC1 [NCGC00263110-01]	18.5 µM	-4.7327 M	-2.1	-124.29	-100.789	1.85e-05 M	1.85e-05 M		
C[C@]12CC[C@@H]3c4ccc(O)cc4CC[C@H]3[C@@H]1CC[C@@H]2O [NCGC00091544-08]	26.9 µM	-4.5699 M	-2.2	-64.056	-67.89	2.69e-05 M	2.69e-05 M		
